These results are taken from ChEMBL document CHEMBL4190408 (J Med Chem, 2018).

The nature of series [1]: physchem. The conditions noted are these: buffer, pH 7.4.
A short description of series [2]: Thermodynamic solubility of the compound in pH 7.4 solution after 90 mins by UVLC-MS analysis. In kind it is physicochemical. The conditions noted are these: for solubility thermodynamic at 1.5 h: pH 7.4 solution, pH 7.4, read-out: Therm_solubility; for Therm_solubility: buffer, pH 7.4, 1.5 h.
The target of series [3] is Cytochrome P450 3A4 (Homo sapiens, UniProt P08684). The conditions noted are these: liver microsomes.
Chain of Cytochrome P450 3A4 (P08684 whole entry): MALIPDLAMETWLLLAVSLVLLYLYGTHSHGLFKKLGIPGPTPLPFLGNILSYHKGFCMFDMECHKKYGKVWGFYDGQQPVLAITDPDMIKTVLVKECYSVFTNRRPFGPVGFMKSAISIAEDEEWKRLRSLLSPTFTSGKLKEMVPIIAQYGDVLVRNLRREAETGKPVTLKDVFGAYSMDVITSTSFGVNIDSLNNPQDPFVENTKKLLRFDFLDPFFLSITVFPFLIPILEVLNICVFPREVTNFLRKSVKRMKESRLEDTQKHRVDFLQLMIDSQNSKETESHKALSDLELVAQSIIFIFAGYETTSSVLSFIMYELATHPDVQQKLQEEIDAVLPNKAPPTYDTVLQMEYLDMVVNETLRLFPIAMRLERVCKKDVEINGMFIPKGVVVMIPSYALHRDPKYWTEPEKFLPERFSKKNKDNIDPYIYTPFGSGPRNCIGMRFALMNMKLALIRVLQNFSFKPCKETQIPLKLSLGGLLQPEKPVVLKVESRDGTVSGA
In series [4] the target is Voltage-gated inwardly rectifying potassium channel KCNH2 (Homo sapiens, UniProt Q12809).
Chain of Voltage-gated inwardly rectifying potassium channel KCNH2 (Q12809 whole entry): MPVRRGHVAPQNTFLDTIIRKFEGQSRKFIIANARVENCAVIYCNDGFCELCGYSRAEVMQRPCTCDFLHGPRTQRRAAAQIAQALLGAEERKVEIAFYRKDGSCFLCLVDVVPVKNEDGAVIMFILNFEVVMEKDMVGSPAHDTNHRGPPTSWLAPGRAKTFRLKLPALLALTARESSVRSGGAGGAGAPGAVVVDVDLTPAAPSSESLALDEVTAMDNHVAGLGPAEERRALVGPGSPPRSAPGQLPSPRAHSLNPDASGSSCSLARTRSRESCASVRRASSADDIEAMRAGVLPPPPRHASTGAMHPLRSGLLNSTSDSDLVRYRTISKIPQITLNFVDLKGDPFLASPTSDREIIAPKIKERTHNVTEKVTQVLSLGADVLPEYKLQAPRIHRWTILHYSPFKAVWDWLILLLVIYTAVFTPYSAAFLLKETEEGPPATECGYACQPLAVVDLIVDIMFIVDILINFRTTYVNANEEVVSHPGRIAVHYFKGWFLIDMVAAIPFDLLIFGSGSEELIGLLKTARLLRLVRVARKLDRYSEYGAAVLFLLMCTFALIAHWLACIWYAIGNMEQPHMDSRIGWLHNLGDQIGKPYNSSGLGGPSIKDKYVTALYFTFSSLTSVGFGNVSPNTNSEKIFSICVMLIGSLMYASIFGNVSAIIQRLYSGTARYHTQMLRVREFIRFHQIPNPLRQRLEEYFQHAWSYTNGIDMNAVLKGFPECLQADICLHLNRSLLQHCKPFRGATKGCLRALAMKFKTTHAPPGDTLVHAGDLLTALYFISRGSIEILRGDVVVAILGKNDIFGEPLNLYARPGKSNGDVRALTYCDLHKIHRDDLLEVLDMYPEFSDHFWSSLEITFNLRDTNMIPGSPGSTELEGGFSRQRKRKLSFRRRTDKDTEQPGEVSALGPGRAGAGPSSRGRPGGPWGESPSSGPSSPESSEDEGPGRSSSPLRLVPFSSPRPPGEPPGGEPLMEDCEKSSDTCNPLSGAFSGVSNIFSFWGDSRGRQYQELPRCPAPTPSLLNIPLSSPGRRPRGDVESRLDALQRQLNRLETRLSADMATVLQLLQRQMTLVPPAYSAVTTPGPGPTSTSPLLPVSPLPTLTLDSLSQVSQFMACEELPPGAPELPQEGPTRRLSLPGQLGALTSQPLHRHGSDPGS
Series [5] in a line: physchem. The conditions noted are these: phosphate buffer, pH 7.4.
A short description of series [6]: in vitro. To be noted: human, liver microsomes.
Series [7] can be described thus: in vitro. The conditions noted are these: mouse, liver microsomes.

In brackets after ≈: the same amount, converted by molar mass.

`COc1ccc(NC(=O)N2CCN(c3nc(N)nc4scnc34)[C@@H](C)C2)c(C)c1` displayed a solubility (kinetic) at 1.5 h in series [1] of 160 µM (≈ 66.2 µg/mL). Also, the solubility thermodynamic at 1.5 h in series [2] was determined as 3 µM (≈ 1.24 µg/mL).

On to `COc1ccc(NC(=O)N2CC3CCC(C2)N3c2nc(N)nc3scnc23)cc1`, for which, in series [1], the kinetic solubility at 1.5 h is over 350 µM. In addition, the IC50 result in series [3] and in series [4] was “Nd(Insoluble)” throughout. Besides, in series [2], the Therm_solubility result is recorded as “Nd(Insoluble)”.

Regarding `COc1ccc(NC(=O)N2CCN(c3nc(N)nc4scnc34)CC2)c(C)n1`, the kinetic solubility at 1.5 h in series [1] is 207 µM (≈ 82.9 µg/mL). The same compound yielded a logD at 1.5 h in series [5] of 1.65.

As to `Nc1nc(N2CCN(C(=O)c3nc4ccccc4[nH]3)CC2)c2ncsc2n1`, the kinetic solubility at 1.5 h in series [1] came out at 38 µM (≈ 14.5 µg/mL). For the same compound, the logD at 1.5 h in series [5] came out at 2.54.

`COc1ccc(CNC(=O)N2CCN(c3nc(N)nc4scnc34)CC2)cc1` had a solubility (kinetic) at 1.5 h in series [1] of 33 µM (≈ 13.2 µg/mL). In addition, in series [5], the logD at 1.5 h is 2.22.

Take `Nc1nc(N2CCN(C(=O)Nc3ccccc3)CC2)c2ncsc2n1`: the solubility (kinetic) at 1.5 h in series [1] turned out to be 178 µM (≈ 63.3 µg/mL). The compound also registered a log distribution coefficient (logD) at 1.5 h in series [5] of 2.21.

For the compound `Nc1nc(N2CCN(C(=O)COc3ccc(Cl)cc3)CC2)c2ncsc2n1`, the solubility (kinetic) at 1.5 h in series [1] was 13 µM (≈ 5.26 µg/mL). In series [5], this compound showed a logD at 1.5 h of 2.68.

As for `COc1ccc(NC(=O)N2CCN(c3nc(N)nc4sc(-c5cccnc5)nc34)CC2)cc1`, the microsomal CLint at 0.75 h, 3 µM in series [6] is 35 µL/min/mg; in series [7] it was 87 µL/min/mg.

In series [1], `COc1ccc(NC(=O)N2CCN(c3nc(N)nc4scnc34)C(C)C2)cc1` (stereo unspecified) yielded a solubility (kinetic) at 1.5 h of over 350 µM. The IC50 entry in series [3] and in series [4] was “Nd(Insoluble)” each time. Moreover, the Therm_solubility result in series [2] is recorded as “Nd(Insoluble)”.

In turn, `COc1ccc(NC(=O)N2CCN(c3nc(N)nc4sncc34)[C@@H](C)C2)c(C)c1` gave a kinetic solubility at 1.5 h in series [1] of over 350 µM. In addition, in series [2], the solubility thermodynamic at 1.5 h turned out to be 52 µM (≈ 21.5 µg/mL). The logD at 1.5 h in series [5] stood at 1.96.

Take `COc1ccc(NC(=O)N2CCN(c3nc(N)nc4scnc34)CC2)cn1`: the kinetic solubility at 1.5 h in series [1] worked out at 293 µM (≈ 113 µg/mL). In series [5], this compound gave a logD at 1.5 h of 1.79.

The compound `Nc1nc(N2CCN(C(=O)Nc3ccc(OC(F)(F)F)cc3)CC2)c2ncsc2n1` gave a kinetic solubility at 1.5 h in series [1] of 12 µM (≈ 5.27 µg/mL). Also, in series [5], the logD at 1.5 h stood at 3.39.

In series [1], `COc1ccc(NC(=O)N2CCN(c3nc(N)nc4scnc34)[C@H](C)C2)c(C)c1` had a solubility (kinetic) at 1.5 h of 170 µM (≈ 70.3 µg/mL). Besides, in series [2], the Therm_solubility entry is on record as “Nd(Insoluble)”.

On to `Cc1cccc(NC(=O)N2CCN(c3nc(N)nc4scnc34)CC2)c1`, for which, in series [1], the kinetic solubility at 1.5 h is 34 µM (≈ 12.6 µg/mL). Moreover, the logD at 1.5 h in series [5] turned out to be 2.81.

Consider `COc1ccc(NC(=O)N2CCN(c3nc(N)nc4scnc34)CC2)c(C)c1`, for which, in series [1], the solubility (kinetic) at 1.5 h stood at 33 µM (≈ 13.2 µg/mL). For the same compound, in series [5], the log distribution coefficient (logD) at 1.5 h amounted to 2.03.

Take `Nc1nc(N2CCN(C(=O)c3cn4ccccc4n3)CC2)c2ncsc2n1`: the solubility (kinetic) at 1.5 h in series [1] is over 350 µM. For the same compound, the logD at 1.5 h in series [5] was 1.58.

In series [1], `Nc1nc(N2CCN(C(=O)Nc3cccnc3)CC2)c2ncsc2n1` had a solubility (kinetic) at 1.5 h of over 350 µM. The logD at 1.5 h in series [5] worked out at 1.46.

In the case of `Cc1ccc(NC(=O)N2CCN(c3nc(N)nc4scnc34)CC2)cc1`, the kinetic solubility at 1.5 h in series [1] came out at 21 µM (≈ 7.76 µg/mL). The same compound had a logD at 1.5 h in series [5] of 2.55.

`Nc1nc(N2CCN(C(=O)c3cc4ccccc4[nH]3)CC2)c2ncsc2n1` registered a solubility (kinetic) at 1.5 h in series [1] of 14 µM (≈ 5.31 µg/mL). In series [5], the logD at 1.5 h amounted to 2.84.

In series [1], `COc1ccc(CC(=O)N2CCN(c3nc(N)nc4scnc34)CC2)cc1OC` yielded a kinetic solubility at 1.5 h of over 350 µM. Moreover, in series [5], the logD at 1.5 h amounted to 1.5.

In series [1], `COc1ccc(NC(=O)N2CCN(c3nc(N)nc4sccc34)[C@@H](C)C2)c(C)c1` showed a kinetic solubility at 1.5 h of 82 µM (≈ 33.8 µg/mL). In series [5], this compound registered a logD at 1.5 h of 2.39.

In the case of `COc1cc(C)c(NC(=O)N2CCN(c3nc(N)nc4scnc34)CC2)cn1`, the kinetic solubility at 1.5 h in series [1] is over 350 µM. Also, the log distribution coefficient (logD) at 1.5 h in series [5] was found to be 1.66.

As to `Cc1ccccc1NC(=O)N1CCN(c2nc(N)nc3scnc23)CC1`, the kinetic solubility at 1.5 h in series [1] turned out to be 33 µM (≈ 12.2 µg/mL). This compound registered a logD at 1.5 h in series [5] of 2.12.
